{"source": "patent US10124008B2", "about": "“Use of inhibitors of acid sphingomyelinase to treat acquired and inherited retinal degenerations” (Wisconsin Alumni Research Foundation, priority 2014, dated 2018)", "key": {"[1]": {"tested_on": "primary RPE cells", "test": "Live imaging of tandem fluorescent mRFP-GFP-LC3 (tfLC3), autophagic flux", "type": "cell-based, porcine", "details": "RPE with A2E; 3 h drug incubation (TO901317 1 μM 20 h)", "description": "RPE cells were transfected with EGFP-LC3 or tandem fluorescent mRFP-GFP-LC3 (Addgene) using the AMAXA NUCLEOFECTOR II (Lonza). Approximately 1.5 million cells and 5 μg of plasmid DNA were used for each transfection. Cells were plated either on serum-coated glass-bottom dishes (Mattek) or […] filters at confluence.\nAndor IQ2 software was used for image acquisition and Imaris x64 (Bitplane) for image analysis. […] Trafficking data was collected from three separate transfections for a total of at least 12-30 movies captured for treatment. During image acquisition care was taken to maintain the same laser power, exposure and electron-multiplying gain settings. […] After background subtraction (using the background subtraction algorithm and identical automatic threshold for all images) and smoothing (Gaussian algorithm with identical threshold settings for all images), Spots and Tracks algorithms were used to identify vesicles and follow them through time and cell-space to obtain total track length and track displacement.\nWe used tandem fluorescent mRFP-GFP-LC3 (tfLC3) to monitor autophagy in primary RPE cells in real time.\n(§1) We performed two initial screens: first, we compared the ability of functional inhibitors (fluoxetine and amitriptyline) with that of the lone structural ASMase inhibitor zoledronic acid in decreasing acetylated tubulin. Here, polarized RPE monolayers with or without A2E were treated with one of the three inhibitors (10 μM, 3 h). Desipramine as a positive control. At the end of the incubation period, cells were fixed and stained for acetylated tubulin, imaged and the amount of acetylated tubulin in the cells was quantified. Second, we evaluated three additional drugs (sertraline, astemizole and fexofenadine) for their abilities to increase autophagy in the RPE. Cells with or without bisretinoids were transfected with mRFP-GFP-LC3, starved to induce autophagy, treated with drugs and imaged as in FIG. 9D."}, "[2]": {"tested_on": "LC3B-II and p62 in primary RPE monolayers", "test": "Immunoblotting of LC3B-II and p62 in polarized primary RPE monolayers", "type": "cell-based, porcine", "details": "A2E-laden RPE after mTOR inhibition; TO901317 1 μM 20 h, desipramine 10 μM 3 h", "description": "RPE harvested from mouse eyecups were sonicated in lysis buffer with protease inhibitors for 10 min. Primary RPE on TRANSWELL filters were harvested and lysed with NE-PER nuclear and cytoplasmic extraction reagents (Thermo Scientific #78833) according to the manufacturer's recommendation. Protein concentrations were measured with DC assay (BioRad). […] Proteins were then transferred onto nitrocellulose membrane using IBLOT dry transfer system (INVITROGEN), blocked in 5% milk in TBS-T for 1 hour before incubating in primary antibody overnight at 4° C. Membranes were probed with antibodies to LC3B (1:3000, Novus NB600-1384 for pig and 1:500, Sigma L7543 for mouse), p62/SQSTM1 (1:1000, ARP03-GP62-C) and actin (1:5000, Santa Cruz) followed by horseradish peroxidase-conjugated secondary antibodies. Immunoblots were visualized by ECL substrate (Thermo Scientific) and quantified using Image Studio (LI-COR). […] Other drugs used were the mTOR inhibitors Torin 1 and Torin 2 (50 nM and 1.5 μM, respectively, for 2 h, TOCRIS), the vacuolar ATPase inhibitor bafilomycin A1 (100 nM for 2 h, EMD Millipore), the LXRα agonist TO901317 (1 μM for 20 h, Cayman Chemicals), the HDAC6 inhibitor trichostatin A (TSA, 500 nM, 16 h, Sigma) and the ASMase inhibitor desipramine (10 μM for 3 h, Sigma). To depolymerize MTs, cells were treated with 33 μM nocodazole for 30 minutes, followed by cold-treatment (4° C.) for 30 minutes (Kreitzer et al., 2003). At the concentrations and exposure times used, none of these drugs caused alterations in RPE cell morphology or physiology (monitored by TER measurements, ZO-1 and organelle marker staining). […] Conversion of LC3B-I to its lipidated form (LC3B-II) is an indicator of autophagosome biogenesis and p62 levels are a measure of autophagic flux (Klionsky et al., 2012)."}, "[3]": {"tested_on": "ceramide in primary RPE", "test": "Immunofluorescence staining for ceramide", "type": "cell-based, porcine", "details": "desipramine treatment", "description": "(§2) ALEXAFLUOR secondary antibodies were used at 1:500 and rhodamine-phalloidin (Cytoskeleton, PHDR1) at 1:200. Filters were mounted under coverslips on glass slides under VECTASHIELD (Vector labs), sealed and visualized with Andor Revolution XD spinning disk confocal microscope using a 60×1.4 NA oil objective with identical exposures and gains for each antibody. Acetylated tubulin-labeled stable microtubules (≥5 μm in length) after nocodazole treatment were analyzed manually in the Surpass mode of Imaris (Bitplane)."}, "[4]": {"tested_on": "MHC-II in RPE", "test": "Quantification of MHC-II staining", "type": "cell-based", "details": "RPE with A2E"}, "[5]": {"tested_on": "acetylated tubulin in polarized primary RPE", "test": "Immunofluorescence staining of acetylated and tyrosinated tubulin", "type": "cell-based, porcine", "details": "inhibitors 10 μM for 3 h, 48 h after A2E treatment", "description": "as §2, with “VECTASHIELD” left out\nas §1"}}, "note": "Entries after “also recorded” stand apart in the source; their conditions may differ.", "data": [{"smiles": "CNCCCN1c2ccccc2CCc2ccccc21", "note": "[desipramine]", "values": [{"measurement": "autophagic flux / autophagosome-lysosome fusion (tfLC3 EGFP:mRFP)", "setting": "[1]", "value": "corrected defects in autophagosome-lysosome fusion; also recorded: completely reversed the autophagic block induced by A2E"}, {"measurement": "LC3B-II levels / autophagosome biogenesis (immunoblot)", "setting": "[2]", "value": "increased LC3B-II levels in RPE with A2E comparable to those in control cells"}, {"measurement": "p62 levels / autophagic flux (immunoblot)", "setting": "[2]", "value": "decreased p62 levels in cells with A2E"}, {"measurement": "ceramide levels", "setting": "[3]", "value": "decreased ASMase activity and ceramide levels"}, {"measurement": "MHC-II protein levels", "setting": "[4]", "value": "decreased MHC-II protein levels"}, {"measurement": "acetylated tubulin in RPE with A2E", "setting": "[5]", "value": "decreased acetylated tubulin in cells with A2E"}]}]}
